Experimental data published in patent US20240277737A1, “METHOD FOR GENERATING DRY POWDER SUITABLE FOR INHALATION ADMINISTRATION OF ANTIMICROBIAL PHOSPHOLIPID COMPOSITIONS” (Celestial Therapeutics, Inc., priority 2021, published 2024).
In brackets after ≈: the same amount, converted by molar mass.

What was measured:
[1] = solubility screening for API spray drying (organic solvents); type: physicochemical
Experimental: The solubility of the surfactant was investigated to identify a suitable solvent system in which the surfactants can be solubilized to process the material by spray drying.
The class III solvents were preferred to the class II solvents because the […] and of lower risk to human health. The solubility of the POPG using class III solvent was lower than 0.5 mg/mL. For this reason, Class II solvents were investigated. The highest solubility was obtained with a mixture DCM/Methanol 5:1 v/v and it will be used as a vehicle for the spray drying process.

[2] = particle size distribution by Sympatec laser particle sizer (RODOS/ASPIROS, 3 bar); type: physicochemical; conditions: raw material, R5 lens
Experimental: The Particle Size Distribution analysis was performed at 3 bar dispersion pressure using a Sympatec laser Particle Sizer equipped with RODOS/ASPIROS dispersion unit and an R5 lens.
The particle size analysis of the spray dried powders was performed at 3 bar dispersion pressure using a Sympatec laser Particle Sizer equipped with RODOS/ASPIROS dispersion unit and an R3 lens (n=2) and is summarised in Table 13 and in FIG. 19-FIG. 21. The PSD of spray dried powders decreased with increasing atomisation pressure and reducing outlet temperature during the spray drying manufacture.
The PSD analysis performed on 174 #003A-01 & 174 #003B-01 following storage at −20° C. was repeat-ed.
The spray dried product 174 #005A-01 was vacuum dried for 24 hours at 25° C. with a maximum pressure ˜0.1 mbar. After the 24 hours, the PSD of this product was evaluated. Post vacuum drying, increased amounts of aggregated material were observed and as a result the Dv90 increased.
Based on the PSD results after the storage, an aliquot of the formulation 174 #005A-01, that was stored at −20° C. for 4 weeks, was taken out from the freezer, transferred in sealed container and equilibrated for 5 hours at ambient temperature (20 C-25 C, <30% RH) in a sealed vial.
The 174 #010A-01 post vacuum drying was separated in different aliquot and stored at 2-8° C. and at −20° C. The PSD and DSC of the spray dried powder was evaluated through time. The spray dried powder was removed from the storage condition an equilibrated at low RH for 5 hours (19° C. and 28% RH) before to perform any test. […]
The particle size distribution of the micronized sample was determined by laser particle size analysis using an R1 (0.1-35.0 μm range) & R3 lens (0.5-175.0 μm range) at 3 bar dispersal pressure at T-0 and after T=7 days after storage of the sample at −20° C. […] There was a slight discrepancy between the two lenses, with the trace of the material measured using the R1 lens appearing larger and very slightly bimodal which wasn't apparent in the trace measured using an R3 lens. […]

[3] = tested on: Toll-like receptor 4 (TLR4) interacting proteins CD14 and MD-2; conditions: cited from earlier work
[4] = tested on: Respiratory Syncytial Virus (RSV); conditions: bronchial epithelial cells; cited from earlier work

Solubility ([1]; Acetone): <500 µg/mL
Solubility ([1]; Chloroform): 16700 µg/mL (≈ 22300 µM)
Solubility ([1]; Cycloexhane): <500 µg/mL
Solubility ([1]; DCM/ Methanol 5:1 v/v): ~70000 µg/mL (≈ 93500 µM)
Solubility ([1]; Dichloromethane (DCM)): <500 µg/mL
Solubility ([1]; Dimethyl sulfoxide (DMSO)): 500 µg/mL (≈ 668 µM)
Solubility ([1]; Dimethylformamide (DMF)): <500 µg/mL
Solubility ([1]; Ethanol (96%)): 500 µg/mL (≈ 668 µM)
Solubility ([1]; Ethyl Acetate): <500 µg/mL
Solubility ([1]; Heptane): <500 µg/mL
Solubility ([1]; Isopropanol (IPA)): <500 µg/mL
Solubility ([1]; Methanol): 1350 µg/mL (≈ 1800 µM)
Solubility ([1]; class III solvent): lower than 0.5 mg/mL
VMD [2]: 59.05 ± 13.17 μm
X10 [2]: 1.80 ± 0.07 μm
X50 [2]: 12.65 ± 4.65 μm
Compound: CCCCCCCC/C=C\CCCCCCCC(=O)O[C@H](COC(=O)CCCCCCCCCCCCCCC)COP(=O)(O)OCC(O)CO (mixture of isomers) [POPG, 1-Palmitoy-2-loleoyl-sn-glycerol-3-phospho-(1′-rac-glycerol)]
inflammatory responses induced by lipopolysaccharide [3]: markedly attenuate
cytopathic effects induced by RSV [4]: significantly inhibited
interleukin-6 production [4]: significantly inhibited
interleukin-8 production [4]: significantly inhibited
